Each structure is given as a SMILES string. Where “and” joins values, the source holds several entries; their conditions need not be identical. Equal values may be shown once.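 All cell lines were grown in 96-well plates and treated with compound for 48 hours. Here, GI50 denotes the concentration required for 50% inhibition of growth. TGI: concentration producing complete growth inhibition.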 Where only a bound is given, the exact number is not on record here.

The experiment concerns MDA-MB-468 breast. Put plainly: NCI-60 cell line screen, 48 h.
Regarding `CCN(CC)CCCC(C)Nc1c(-c2ccccc2)cnc2cc(Cl)ccc12` (stereo unspecified), the GI50 is 2630 nM and the TGI came out at 7950 nM.
With `CN(c1ccc(C#N)c(Cl)c1)C1CCC(NC(=O)c2ccc(N3CCN(C4CN(c5ccc6c(c5)C(=O)N(C5CCC(=O)NC5=O)C6=O)C4)CC3)cc2)CC1` (stereo unspecified), the GI50 was 13700 nM and the TGI was 60000 nM.
The corresponding values for `C[C@H]1c2ccccc2CN1CCCOc1cc2c(cc1OCC1CC1)C1(CCCC1)C(N)=N2` are 813 nM and 1830 nM.
Regarding `CCOC(=O)C1=C(C)N2C(=NC3=C(CCC/C3=C\c3ccc(Cl)cc3)C2c2ccc(Cl)cc2)S1` (stereo unspecified), the GI50 was 2360 nM and the TGI came out at 6190 nM.
The like results for `Nc1ncccc1-c1nc2ccc(-c3ccccc3)nc2n1-c1ccc(C2(N)CCC2)cc1` were, in that order, 117 nM and 1990 nM.
The like results for `COc1cc(/C=C/[N+](=O)[O-])cc(OC)c1OC` were, in that order, 1320 nM and 2870 nM.
For the compound `CCN1C(=O)N(CC)C2C1NN=c1s/c(=C\c3ccc[nH]3)c(=O)n12` (stereo unspecified), the GI50 was 265 nM and the TGI is above 100000 nM.
`Brc1cccc(-c2cc(-c3ccc4nccnc4c3)[nH]n2)c1`: the GI50 is 900 nM.
Turning to `COc1cc(OC)cc(-c2n/c(=C\c3c(O)[nH]c4ccc(Cl)cc34)cc3c2=Nc2ccccc2-3)c1`, the GI50 is 17900 nM and the TGI was determined as 45600 nM.
For `N/C(=N\c1nc2ccccc2s1)NC(=NC1CCCCC1)NC1CCCCC1`, the GI50 was 1700 nM and the TGI is 3410 nM.
For `COc1cccc(CC(C)=C(c2ccc(OCCCN(C)C)cc2)c2ccc(OCCCN(C)C)cc2)c1`, the GI50 is 518 nM and the TGI worked out at 1180 nM.
The corresponding values for `CC/C=C\C/C=C/C=C1/C(=O)C=C[C@@H]1C/C=C\CCCC(=O)OC` are 1790 nM and 3830 nM.
Take `O=C1CCC(N2C(=O)c3cccc(NCCCC4CCN(CCNC(=O)c5cc6c(o5)C(=O)c5ccccc5C6=O)CC4)c3C2=O)C(=O)N1` (stereo unspecified): the GI50 was 265 nM and the TGI was determined as 1940 nM.
The corresponding values for `Cc1cc(NC(=O)c2cnc(N3CCN(CCOCCOCCOCCOCCC(=O)N[C@H](C(=O)N4C[C@H](O)C[C@H]4C(=O)N[C@@H](C)c4ccc(-c5scnc5C)cc4)C(C)(C)C)CC3)cn2)c2ncccc2c1` are 1670 nM and 3390 nM.
Turning to `CC(=O)O.CC(=O)O.CC(=O)O.CC(=O)O.[Rh].[Rh]`, the GI50 is 15000 nM and the TGI was found to be 58100 nM.
Turning to `Cc1ccc(NC(=O)Nc2nc3ccc([N+](=O)[O-])cc3s2)cc1`, the GI50 is 1710 nM and the TGI worked out at 5800 nM.
Turning to `Nc1n[nH]c2ccc([C@@H]3Nc4cc5[nH]ncc5cc4[C@H]4C5CCC(C5)[C@@H]34)cc12` (stereo partly specified), the GI50 was 211 nM and the TGI is 873 nM.
As to `C=CCn1c(=O)c2cnc(Nc3ccc(N4CCN(C)CC4)cc3)nc2n1-c1cccc(C(C)(C)O)n1`, the GI50 was 144 nM and 317 nM; the TGI is 801 nM and 2080 nM.
For `COc1ccc(C2C(C#N)=C(/N=C/c3ccc(Cl)cc3)Oc3c2sc2c(C)cccc32)cc1` (stereo unspecified), the GI50 was 1090 nM and the TGI was found to be 9340 nM.
Consider `C[C@@H]1COCCN1c1cc(-c2ccnn2C)c2ccnc(-c3ccn[nH]3)c2n1`, for which the GI50 is 164 nM and 324 nM; the TGI was 854 nM and 3080 nM.
Turning to `Oc1c(Cl)cc(Cl)c2cccnc12`, the GI50 was 2100 nM and the TGI was found to be 5530 nM.
The corresponding values for `Cn1nnc2c(C(N)=O)ncn2c1=O` are above 100000 nM and above 100000 nM.
Regarding `CCN(CC)C(=S)SSC(=S)N(CC)CC`, the GI50 was 15800 nM and 16800 nM; the TGI was 43700 nM and 44800 nM.
With `NC(=O)c1cccc(-c2cc(C(N)=O)ccc2Cl)c1`, the GI50 is 4610 nM and the TGI was above 100000 nM.
The like results for `NS(=O)(=O)c1cccc(-c2ccc3c(NC(=O)C4CC4)n[nH]c3c2)c1` were, in that order, 5250 nM and above 25000 nM.
The corresponding values for `COC1=CC(=O)c2c(O)c3c(c(O)c2C1=O)C[C@](C)(O)C[C@@H]3O` are 2160 nM and 7130 nM.
In the case of `Cc1oc2c(c1C(=O)N1CC[C@@H](N)C1)C(=O)c1c(c(O)c3ccccc3c1O)C2=O`, the GI50 was 2520 nM and the TGI was determined as 11900 nM.
The corresponding values for `OCc1ccc(N2CCCC2)cc1Cl` are 75.7 nM and 324 nM.
As for `C=C1CC[C@@H]2[C@](C)(COC(C)=O)[C@H](OC(C)=O)CC[C@@]2(C)[C@@H]1CC(Nc1ccc(S(=O)(=O)Nc2nccs2)cc1)C1=CCOC1=O` (stereo partly specified), the GI50 was 1830 nM and the TGI worked out at 4430 nM.
The like results for `O=C1CSC(c2ccccc2O)N1c1nnc(Cn2ccnc2)o1` (stereo unspecified) were, in that order, 3110 nM and 13200 nM.
The like results for `Cn1c2c(c3ccccc31)CCN1C(=O)C3SC21C1C(=O)N(c2ccccc2)C(=O)C31` (stereo unspecified) were, in that order, 51600 nM and above 100000 nM.
Turning to `O=C(Nc1cnc(C(F)(F)F)cn1)c1cc(Cl)ccc1O`, the GI50 is 282 nM and the TGI was 819 nM.
For the compound `O=[N+]([O-])c1ccc2c(Nc3ccccc3-c3ccccc3Nc3c4ccccc4nc4cc([N+](=O)[O-])ccc34)c3ccccc3nc2c1`, the GI50 was 2250 nM and the TGI is 8600 nM.
As to `Cc1cccc2c(Nc3ccc(NS(C)(=O)=O)cc3)c3ccc([N+](=O)[O-])cc3nc12`, the GI50 is 202 nM and the TGI is 882 nM.
Regarding `C=C1C(=O)O[C@H]2[C@H]1CC/C(CNC(=O)/C=C/c1ccccc1)=C\CC[C@@]1(C)O[C@@H]21`, the GI50 was 480 nM and the TGI was 1690 nM.
Regarding `O=c1c(O)cccn1CCCN(CCCn1cccc(O)c1=O)CCn1cccc(O)c1=O`, the GI50 is 8330 nM and the TGI came out at 45600 nM.
Turning to `CCN(CC)CCC(CNc1c(C)cnc2cc(Cl)ccc12)c1ccc(Cl)cc1` (stereo unspecified), the GI50 was 2050 nM and the TGI is 5450 nM.
The like results for `CCN(C(=O)CN1CCN(c2cc3c(cc2F)c(=O)c(C(=O)O)cn3CC)CC1)c1nc(-c2ccccc2)cs1` were, in that order, 307 nM and 896 nM.
The corresponding values for `Cc1c2ccncc2c(C)c2c1c1cc(CO)ccc1n2C` are 105 nM and 327 nM.
As to `COc1ccc(Oc2ccccc2NC(=O)CNC(=O)c2cccc3ccccc23)cc1`, the GI50 was 454 nM and the TGI is above 25000 nM.
Take `NNc1c2ccccc2nc2ccccc12`: the GI50 was 470 nM and the TGI turned out to be 13000 nM.
Turning to `COc1cccc(C2C(C#N)=C(N)Oc3c2ccc2ccccc32)c1` (stereo unspecified), the GI50 is 19.4 nM and the TGI is 7040 nM.
The corresponding values for `COc1cc(C2CC(=O)Nc3c2cc(Br)c2ccccc32)cc(Br)c1OC` (stereo unspecified) are 529 nM and 2540 nM.
Regarding `Cc1ccc(Sc2oc(-c3ccc(C)cc3)nc2[P+](c2ccccc2)(c2ccccc2)c2ccccc2)cc1`, the GI50 is 227 nM and the TGI is 705 nM.
The corresponding values for `COc1ccc2c(c1)/C(=C\c1c[nH]c3ccc(OC)cc13)C(=O)N2` are 1780 nM and 5660 nM.
As for `O=C1/C(=C/c2cccc(Br)c2)COc2ccc(O)c(O)c21`, the GI50 was 1600 nM and the TGI came to 3800 nM.

(Values after PubChem BioAssay (NCI).)
